Measured values: patent US9856279B2 (AGIOS PHARMACEUTICALS, INC, priority 2011, dated 2018)

How the values were obtained:
HT1080 cells = test: Cellular assay for IDH1m inhibitors: inhibition of 2-HG production (LC-MS, 48 hours) in HT1080 cells; format: cell-based; conditions: Homo sapiens, HT-1080; inhibition of 2-HG production, HT1080 cells; read-out: HT1080 IC50
In short: (§1)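 HT1080 or U87MG cells were seeded at 5000/well in DMEM with 10% FBS, incubated overnight, then treated with compounds (0.2% DMSO final) for 48 h. Medium 2-HG was quantified by LC-MS, and IC50 was taken as the concentration reducing 2-HG by 50% versus DMSO control.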

IDH1 R132H = IDH1 R132H (Homo sapiens, UniProt O75874, R132H); test: Assay for IDH1 R132H inhibitors (NADPH/aKG, resazurin detection); format: biochemical; conditions: enzyme assay of Example 12; read-out: IDH1R132H IC50
IDH1 R132H, sequence (O75874 whole entry R132H): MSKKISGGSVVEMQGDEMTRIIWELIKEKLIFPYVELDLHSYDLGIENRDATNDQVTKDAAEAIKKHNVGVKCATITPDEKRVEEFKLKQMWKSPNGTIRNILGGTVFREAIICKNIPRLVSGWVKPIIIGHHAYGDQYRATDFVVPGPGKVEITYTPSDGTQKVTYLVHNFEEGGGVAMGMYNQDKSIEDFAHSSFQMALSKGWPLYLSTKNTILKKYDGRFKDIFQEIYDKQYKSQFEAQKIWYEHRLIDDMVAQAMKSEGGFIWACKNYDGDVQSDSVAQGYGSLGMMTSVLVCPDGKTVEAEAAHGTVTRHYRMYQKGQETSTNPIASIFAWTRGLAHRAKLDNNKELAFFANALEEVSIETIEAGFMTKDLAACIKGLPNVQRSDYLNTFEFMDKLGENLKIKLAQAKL
In short: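 Compound added to substrate mix (8 uM NADPH, 2 mM aKG), then enzyme mix (0.2 μg/ml IDH1 R132H); 50 min RT in 20 mM Tris pH 7.5, 150 mM NaCl, 10 mM MgCl2, 0.03% BSA. Resazurin detection mix (30 μM) 5 min RT; resorufin fluorescence Ex544/Em590.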

U87MG cells = test: Cellular assay for IDH1m inhibitors: inhibition of 2-HG production (LC-MS, 48 hours) in U87MG cells; format: cell-based; conditions: Homo sapiens, U-87 MG, inhibition of 2-HG production, U87R132H cells; read-out: U87R132H IC50
In short: as §1

Row | Structure (SMILES) | IC50 (HT1080 cells) | IC50 (IDH1 R132H) | IC50 (U87MG cells)
1 | COCCC(=O)N1CCN(c2nc(C3CC3)c(-c3cccc4cnccc34)c(C)c2C#N)C[C@H]1C [Compound 410, 6-cyclopropyl-5-(isoquinolin-5-yl)-2-((R)-4-(3-methoxypropanoyl)-3-methylpiperazin-1-yl)-4-methylnicotinonitrile] | < 500 nM | < 500 nM | < 500 nM
2 | C=Cc1cc(-c2c(C3CC3)nc(N3CCN(C(=O)C[C@H]4CCO4)[C@H](C(C)C)C3)c(C#N)c2C)cnn1 [Compound 786, 6-cyclopropyl-2-((R)-3-isopropyl-4-(2-((R)-oxetan-2-yl)acetyl)piperazin-1-yl)-4-methyl-5-(6-vinylpyridazin-4-yl)nicotinonitrile] | < 500 nM | < 500 nM | < 500 nM
3 | C=Cc1cc(-c2cc(C#N)c(N3CCN(C(=O)COCC)[C@H](C)C3)nc2C2CC2)ccn1 [Compound 573, (R)-2-cyclopropyl-6-(4-(2-ethoxyacetyl)-3-methylpiperazin-1-yl)-2′-vinyl-3,4′-bipyridine-5-carbonitrile] | < 500 nM | < 500 nM | < 500 nM
4 | C/C=C/C(=O)Nc1cccc(-c2cc(C#N)c(N3CCN(C(=O)CCOC)[C@H](C)C3)nc2C2CC2)c1 [Compound 415, (R,E)-N-(3-(5-cyano-2-cyclopropyl-6-(4-(3-methoxypropanoyl)-3-methylpiperazin-1-yl)pyridin-3-yl)phenyl)but-2-enamide] | 1000 to 10000 nM | < 500 nM | 1000 to 10000 nM
5 | N#Cc1cc(-c2cccc3cnccc23)c(C2CC2)nc1N1CCN(C(=O)CC(F)(F)F)[C@H](C2CC2)C1 [Compound 387, (R)-6-cyclopropyl-2-(3-cyclopropyl-4-(3,3,3-trifluoropropanoyl)piperazin-1-yl)-5-(isoquinolin-5-yl)nicotinonitrile] | < 500 nM | < 500 nM | < 500 nM
6 | CCOC(=O)N1CCN(c2cc(C#N)c(N3CCN(C(=O)CCOC)[C@H](C)C3)nc2C2CC2)CC1 [Compound 376, (R)-ethyl 4-(5-cyano-2-cyclopropyl-6-(4-(3-methoxypropanoyl)-3-methylpiperazin-1-yl)pyridin-3-yl)piperazine-1-carboxylate] | 1000 to 10000 nM | < 500 nM | 500 to 1000 nM
7 | C=Cc1cc(-c2cc(C#N)c(N3CCN(C(=O)CCOC)[C@H](C(C)C)C3)nc2C2CC2)ccn1 [Compound 631, (R)-2-cyclopropyl-6-(3-isopropyl-4-(3-methoxypropanoyl)piperazin-1-yl)-2′-vinyl-3,4′-bipyridine-5-carbonitrile] | < 500 nM | < 500 nM | < 500 nM
8 | C=Cc1cc(-c2cc(C#N)c(N3CCN(C(=O)CCO)[C@H](C4CC4)C3)nc2C2CC2)ccn1 [Compound 527] | < 500 nM | < 500 nM | < 500 nM
9 | C=Cc1ncc2c(-c3cc(C#N)c(N4CCN(C(=O)CCOC)[C@H](C)C4)nc3C3CC3)cccc2n1 [Compound 603, (R)-6-cyclopropyl-2-(4-(3-methoxypropanoyl)-3-methylpiperazin-1-yl)-5-(2-vinylquinazolin-5-yl)nicotinonitrile] | < 500 nM | < 500 nM | < 500 nM
10 | COCCC(=O)N1CCN(c2nc(C3CC3)c(OCc3cccnc3)cc2C#N)C[C@H]1C [Compound 304, (R)-6-cyclopropyl-2-(4-(3-methoxypropanoyl)-3-methylpiperazin-1-yl)-5-(pyridin-3-ylmethoxy)nicotinonitrile] | 1000 to 10000 nM | < 500 nM | 500 to 1000 nM
11 | N#Cc1cc(Oc2ccnc(Cl)c2)c(C2CC2)nc1N1CCN(C(=O)CCO)[C@H](C2CC2)C1 [Compound 694, (R)-5-(2-chloropyridin-4-yloxy)-6-cyclopropyl-2-(3-cyclopropyl-4-(3-hydroxypropanoyl)piperazin-1-yl) nicotinonitrile] | 500 to 1000 nM | < 500 nM | < 500 nM
12 | C=Cc1ccnc(Nc2cc(C#N)c(N3CCN(C(=O)CCO)[C@H](C)C3)nc2C2CC2)c1 [Compound 707, (R)-6-cyclopropyl-2-(4-(3-hydroxypropanoyl)-3-methylpiperazin-1-yl)-5-((4-vinylpyridin-2-yl)amino)nicotinonitrile] | < 500 nM | < 500 nM | < 500 nM
13 | COCCC(=O)N1CCN(c2nc(C3CC3)c(-c3cccnc3OC)c(C)c2C#N)C[C@H]1C [Compound 320, (R)-2-cyclopropyl-2′-methoxy-6-[4-(3-methoxy-propionyl)-3-methyl-piperazin-1-yl]-4-methyl-[3,3′]bipyridinyl-5-carbonitrile] | 500 to 1000 nM | < 500 nM | < 500 nM
14 | COCCC(=O)N1CCN(c2nc(C3CC3)c(-c3cnc4[nH]ccc4c3)cc2C#N)C[C@H]1C [Compound 374, (R)-6-cyclopropyl-2-[4-(3-methoxy-propionyl)-3-methyl-piperazin-1-yl]-5-(1H-pyrrolo[2,3-b]pyridin-5-yl)-nicotinonitrile] | 1000 to 10000 nM | < 500 nM | 500 to 1000 nM
15 | COCCC(=O)N1CCN(c2nc(C(C)C)c(OCCNC(=O)OCc3ccccc3)cc2C#N)C[C@H]1C [Compound 272, (R)-benzyl 2-(5-cyano-2-isopropyl-6-(4-(3-methoxypropanoyl)-3-methylpiperazin-1-yl)pyridin-3-yloxy)ethylcarbamate] | 1000 to 10000 nM | 500 to 1000 nM | 1000 to 10000 nM
16 | C=Cc1cc(-c2cc(C#N)c(N3CCN(C(=O)C4CC4)[C@H](C)C3)nc2C2CC2)ccn1 [Compound 443, (R)-6-(4-(cyclopropanecarbonyl)-3-methylpiperazin-1-yl)-2-cyclopropyl-2′-vinyl-3,4′-bipyridine-5-carbonitrile] | < 500 nM | < 500 nM | < 500 nM
17 | C=CC(=O)N1CC=C(c2cc(C#N)c(N3CCN(C(=O)C4CC4)[C@H](C)C3)nc2C2CC2)C1 [Compound 612, (R)-5-(1-acryloyl-2,5-dihydro-1H-pyrrol-3-yl)-2-(4-(cyclopropanecarbonyl)-3-methylpiperazin-1-yl)-6-cyclopropylnicotinonitrile] | < 500 nM | < 500 nM | < 500 nM
18 | COCCC(=O)N1CCN(c2nc(C3CC3)c(-c3cccc(-c4cn[nH]c4)c3)cc2C#N)C[C@H]1C [Compound 406, (R)-6-cyclopropyl-2-[4-(3-methoxy-propionyl)-3-methyl-piperazin-1-yl]-5-[3-(1H-pyrazol-4-yl)-phenyl]-nicotinonitrile] | 1000 to 10000 nM | < 500 nM | 1000 to 10000 nM
19 | N#Cc1cc(-c2ccc3ncoc3c2)c(C2CC2)nc1N1CCN(C(=O)C2CC2)[C@H](C2CC2)C1 [Compound 466, (R)-5-(benzo[d]oxazol-6-yl)-2-(4-(cyclopropanecarbonyl)-3-cyclopropylpiperazin-1-yl)-6-cyclopropylnicotinonitrile] | 1000 to 10000 nM | < 500 nM | 500 to 1000 nM
20 | COCCC(=O)N1CCN(c2nc(C3CC3)c(O[C@@H](C)c3ccccc3)cc2C#N)C[C@H]1C [Compound 303, 6-cyclopropyl-2-((R)-4-(3-methoxypropanoyl)-3-methylpiperazin-1-yl)-5-((S)-1-phenylethoxy)nicotinonitrile] | 1000 to 10000 nM | < 500 nM | 1000 to 10000 nM
21 | N#Cc1cc(-c2cccc3c(O)nccc23)c(C2CC2)nc1N1CCN(C(=O)CC(F)(F)F)[C@H](C2CC2)C1 [Compound 547, (R)-6-cyclopropyl-2-(3-cyclopropyl-4-(3,3,3-trifluoropropanoyl)piperazin-1-yl)-5-(1-hydroxyisoquinolin-5-yl)nicotinonitrile] | < 500 nM | < 500 nM | < 500 nM
22 | C=Cc1nccc(-c2cc(C#N)c(N3CCN(C(=O)C4CC4)[C@H](C4CC4)C3)nc2C2CC2)n1 [Compound 496, (R)-2-(4-(cyclopropanecarbonyl)-3-cyclopropylpiperazin-1-yl)-6-cyclopropyl-5-(2-vinylpyrimidin-4-yl)nicotinonitrile] | 500 to 1000 nM | 500 to 1000 nM | < 500 nM
23 | COCCC(=O)N1CCN(c2nc(C3CC3)c(-c3ccc4nccn4c3)cc2C#N)C[C@H]1C [Compound 436, (R)-6-cyclopropyl-5-imidazo[1,2-a]pyridin-6-yl-2-[4-(3-methoxy-propionyl)-3-methyl-piperazin-1-yl]-nicotinonitrile] | 500 to 1000 nM | < 500 nM | 500 to 1000 nM
24 | C=CC(=O)N1CCC=C(c2c(C3CC3)nc(N3CCN(C(=O)C[C@H]4CCO4)[C@H](C4CC4)C3)c(C#N)c2C)C1 [Compound 789, 5-(1-acryloyl-1,2,5,6-tetrahydropyridin-3-yl)-6-cyclopropyl-2-((R)-3-cyclopropyl-4-(2-((R)-oxetan-2-yl)acetyl)piperazin-1-yl)-4-methylnicotinonitrile] | < 500 nM | < 500 nM | < 500 nM
25 | COCCC(=O)N1CCN(c2nc(C3CC3)c(-c3ccc(C)c(F)c3)c(C)c2C#N)C[C@H]1C [Compound 266, (R)-6-cyclopropyl-5-(3-fluoro-4-methylphenyl)-2-(4-(3-methoxypropanoyl)-3-methylpiperazin-1-yl)-4-methylnicotinonitrile] | 1000 to 10000 nM | < 500 nM | 1000 to 10000 nM
